This is an account of results in US20260373266A1, “PROTEIN DEGRADERS AND USES THEREOF” (KYMERA THERAPEUTICS, INC., priority 2022, published 2026).

SMILES strings stand for the structures.

The target of this assay is T1, DCAF1 WD40 domain (residues 1077-1390) (Homo sapiens, UniProt Q9Y4B6).
T1 construct: DCAF1 WD40 domain (residues 1077-1390)
T1 sequence (Q9Y4B6 1077-1390): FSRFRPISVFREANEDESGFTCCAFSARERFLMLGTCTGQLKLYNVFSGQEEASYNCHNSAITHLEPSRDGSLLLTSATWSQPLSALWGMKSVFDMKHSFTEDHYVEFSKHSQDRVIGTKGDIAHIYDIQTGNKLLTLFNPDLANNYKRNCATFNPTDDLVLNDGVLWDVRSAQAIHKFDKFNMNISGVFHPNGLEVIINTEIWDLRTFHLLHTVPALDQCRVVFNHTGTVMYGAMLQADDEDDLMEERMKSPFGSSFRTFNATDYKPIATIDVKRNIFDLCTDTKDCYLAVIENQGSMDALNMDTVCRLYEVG
Briefly: DCAF1 binding assay by SPR (Biacore 8K+), DCAF1-3 KD. The following applies: 25 °C, read-out: DCAF1-3 SPR (KD).
Regarding `C=CC(=O)NCC1CCN(c2ccnc(N3CC[C@H]4[C@@H]3CCCN4c3cccc(F)c3)c2)CC1` [I-671], the Kd – broadly, the equilibrium constant for the complex coming apart – is under 10 µM. Next, `NC(=O)C[C@@]1(c2cccc(Cl)c2)CN=C(c2c[nH]nc2-c2ccccc2F)N1` [I-191]: over 200 µM; `c1ccc(COc2cccc(N3CCC[C@@H](Nc4cc(N5CCOCC5)ccn4)C3)c2)cc1` [I-690]: over 200 µM; `Cc1sc2c(c1C)C(c1ccc(Cl)cc1)=N[C@@H](CC(=O)NCCOCCOCCOCCOCCOCCC1CCN(c3ccnc(N4CC[C@@H]5[C@H]4CCCN5c4cccc(F)c4)c3)CC1)c1nnc(C)n1-2` [I-891]: under 10 µM. `Fc1cccc([C@@H]2CCC[C@@H](Nc3cc(N4CCOCC4)ncn3)C2)c1` [I-183]: the Kd is over 200 µM. `NCCCCCCCCCCCCCCC(=O)c1[nH]cc(C(=O)N[C@@H](CC(N)=O)c2cccc(Cl)c2)c1-c1ccccc1F` [I-663]: the dissociation constant Kd was over 200 µM.

For the molecule `NCCOCCOCCOCCOCC(=O)c1[nH]cc(C(=O)N[C@@H](CC(N)=O)c2cccc(Cl)c2)c1-c1ccccc1F` [I-674], the Kd is under 10 µM.

Take `NC(=O)C[C@H](NC(=O)c1cn[nH]c1-c1ccccc1F)c1cccnc1` [I-131]: the Kd is over 200 µM. Turning to `c1cc2c(N3CCC[C@@H](Nc4cc(N5CCOCC5)ccn4)C3)nccc2cn1` [I-66], the Kd is 100 to 200 µM.

Turning to `Cc1c(F)ccc(F)c1-c1[nH]ncc1C(=O)N[C@@H](c1cccc(Cl)c1)[C@@H]1CCCS1(=O)=O` [I-1002], the Kd was under 10 µM. Turning to `C=CC(=O)Nc1ccc2[nH]cc(C(=O)N[C@@H](CC(N)=O)c3cccc(Cl)c3)c2c1` [I-475], the Kd was over 200 µM.

Turning to `c1ccc2c(N3CCC[C@@H](Nc4cc(N5CCOCC5)ccn4)C3)nsc2c1` [I-112], the Kd is 10 to 100 µM. On to `O=C(C[C@H](NC(=O)c1cn[nH]c1-c1ccccc1F)c1cccc(Cl)c1)NC1CC1` [I-142], for which the Kd was over 200 µM.

As for `N#Cc1ccccc1-c1[nH]ncc1C(=O)N[C@@H](CC(N)=O)c1cccc(Cl)c1` [I-338], the Kd is under 10 µM. `COC(=O)C[C@H](NC(=O)c1cn[nH]c1-c1ccccc1F)c1cccc(Cl)c1` [I-757]: the Kd was over 200 µM. For the molecule `NC(=O)C[C@H](NC(=O)c1cn[nH]c1-c1cnsc1)c1cccc(Cl)c1` [I-158], the Kd fell in the range of 10 to 100 µM.

In the case of `c1ccc2c(N3CCC[C@@H](Nc4cc(N5CCOCC5)ncn4)C3)cncc2c1` [I-391], the Kd is over 200 µM. Take `Fc1cccc(N2CCC[C@@H](Nc3nccc(N4CCCCC4)n3)C2)c1` [I-319]: the Kd fell in the range of 100 to 200 µM. Consider `Cc1cc(N2CCC[C@@H](Nc3cc(N4CCOCC4)ccn3)C2)cnc1OC(C)C` [I-428], for which the Kd was over 200 µM.

For the molecule `Cc1cccc(C(=O)c2[nH]cc(C(=O)N[C@@H](CC(N)=O)c3cccc(Cl)c3)c2-c2c(C)cccc2F)c1` [I-627], the Kd is under 10 µM. Regarding `C=CC(=O)N1CCC[C@H](c2n[nH]cc2C(=O)N[C@@H](CC(N)=O)c2cccc(Cl)c2)C1` [I-483], the Kd is over 200 µM. For `Fc1cc2ccccc2c(N2CCC[C@@H](Nc3cc(N4CCOCC4)ccn3)C2)n1` [I-72], the Kd fell in the range of 100 to 200 µM. In the case of `NCCCc1ccc(N2CCC[C@@H](Nc3cc(N4CCOCC4)ccn3)C2)cc1` [I-856], the equilibrium dissociation constant (Kd) fell in the range of 10 to 100 µM.

Consider `Fc1cccc(N2CCC[C@@H](Nc3cncc(N4CCOCC4)c3)C2)c1` [I-19], for which the dissociation constant (Kd) lay within 10 to 100 µM. On to `O=S1(=O)[C@H](Nc2cc(N3CCOCC3)ccn2)CCCN1c1cccc(F)c1` [I-282], for which the Kd was over 200 µM. For the molecule `Fc1cccc(N2CCC[C@@H](N(CCC(F)F)c3cc(N4CCOCC4)ccn3)C2)c1` [I-290], the Kd is over 200 µM. As to `NCCOCCOCCOCCOCCC1CCN(c2ccnc(N3CC[C@@H]4[C@H]3CCCN4c3cccc(F)c3)c2)CC1` [I-650], the Kd was over 200 µM. In the case of `OC[C@@H]1CCN(c2cccc(F)c2)C[C@H]1Nc1cc(N2CCCCC2)ccn1` [I-990], the Kd lay within 10 to 100 µM. Next, `Fc1cccc(N2CCC[C@@H]3[C@H]2CCN3c2cc(N3CC4CC(C4)C3)ccn2)c1` [I-623]: under 10 µM; `NC(=O)Cc1ccc(F)c(-c2[nH]ncc2C(=O)N[C@@H](CC(N)=O)c2cccc(Cl)c2)c1` [I-521]: 10 to 100 µM. To `Fc1cccc(N2CCC[C@@H](Nc3cc(N4CC5CCC(CC5)C4)ccn3)C2)c1` [I-618] belongs under 10 µM; to `C[C@@H]1CCCN(c2ccnc(N[C@@H]3CCCN(c4cccc(F)c4)C3)c2)C1` [I-552], 10 to 100 µM; to `COCCC1C2CCC1CN(c1ccnc(N[C@@H]3CCCN(c4cccc(F)c4)C3)c1)C2` (some centres unmarked) [I-654], under 10 µM. Consider `Cn1nnnc1-c1ccc(F)c(-c2n[nH]cc2C(=O)N[C@@H](CC(N)=O)c2cccc(Cl)c2)c1` [I-268], for which the Kd was over 200 µM. `c1cc(N2CCOCC2)cc(N[C@@H]2CCCN(c3ccc4c(N5CCNCC5)ccnc4c3)C2)n1` [I-858]: the dissociation constant Kd is 10 to 100 µM. As to `NC(=O)OCc1cc(F)cc(N2CCC[C@@H]3[C@H]2CCN3c2cc(N3CC4CC(C4)C3)ccn2)c1` [I-1036], the Kd fell in the range of 10 to 100 µM. Next, `COCCN(c1cc(N2CCOCC2)ccn1)[C@@H]1CCCN(c2cccc(F)c2)C1` [I-76]: 10 to 100 µM; `c1csc(-c2ccc(N3CCC[C@@H](Nc4cc(N5CCOCC5)ccn4)C3)cc2)c1` [I-695]: 10 to 100 µM. `C=CC(=O)NCCCCC1CCN(c2ccnc(N3CC[C@@H]4[C@H]3CCCN4c3cccc(F)c3)c2)CC1` [I-852]: the Kd is under 10 µM. Take `NCc1cnc(N2CCCCC2)nc1N[C@@H]1CCCN(c2cccc(F)c2)C1` [I-1010]: the Kd is 10 to 100 µM. For the molecule `C=CC(=O)N1CCC(N(C)c2ccnc(N[C@@H]3CCCN(c4cccc(F)c4)C3)c2)C1` (some centres unmarked) [I-458], the Kd was over 200 µM.

`NC(=O)C[C@@]1(NC(=O)c2c[nH]nc2-c2ccccc2F)CCCc2cc(Cl)ccc21` [I-241]: the Kd is over 200 µM.

Take `NC(=O)CCc1ccc(F)c(-c2[nH]ncc2C(=O)N[C@@H](CC(N)=O)c2cccc(Cl)c2)c1` [I-522]: the Kd was in the range of 10 to 100 µM. Next, `O=C(O)CCN(c1cc(N2CCOCC2)ccn1)[C@@H]1CCCN(c2cccc(F)c2)C1` [I-288]: over 200 µM; `COc1c(N[C@@H]2CCCN(c3cccc(F)c3)C2)cncc1N1CCOCC1` [I-544]: 100 to 200 µM; `c1cnc2ccnc(N3CCC[C@@H](Nc4cc(N5CCOCC5)ccn4)C3)c2c1` [I-63]: 100 to 200 µM. To `Cc1cccc(F)c1-c1[nH]ncc1C(=O)N[C@H](CC(N)=O)c1cc(F)cc(Cl)c1` [I-749] belongs under 10 µM. In the case of `CC(=O)Nc1ccc(N2CCC[C@@H]3[C@H]2CCN3c2cc(N3CCCCC3)ccn2)cc1F` [I-746], the Kd fell in the range of 10 to 100 µM. Next, `Cc1sc2c(c1C)C(c1ccc(Cl)cc1)=N[C@@H](CC(=O)NCCOCCOCCOCCOCCOCC(=O)c1[nH]cc(C(=O)N[C@@H](CC(=O)N(C)C)c3cccc(Cl)c3)c1-c1c(F)ccc(F)c1C)c1nnc(C)n1-2` [I-911]: under 10 µM; `NC(=O)C[C@H](NC(=O)c1cn[nH]c1-c1oncc1O)c1cccc(Cl)c1` [I-161]: over 200 µM; `Fc1cccc(N2CCCC3(CNc4cnc(N5CCCCC5)cc4N3)C2)c1` (centres unmarked) [I-993]: 10 to 100 µM.

On to `CC(C)Oc1cncc(N2CCC[C@@H](Nc3cc(N4CCOCC4)ccn3)C2)c1` [I-433], for which the Kd was in the range of 100 to 200 µM.

On to `Cc1ccc(Cl)cc1[C@H](CC(N)=O)NC(=O)c1cn[nH]c1-c1ccccc1F` [I-583], for which the dissociation constant (Kd) is under 10 µM.

For the molecule `C=CC(=O)N1CCCC(c2[nH]ncc2C(=O)N[C@@H](CC(N)=O)c2cccc(Cl)c2)C1` (some centres unmarked) [I-542], the Kd was in the range of 100 to 200 µM. Next, `NC(=O)C[C@H](NC(=O)c1cn[nH]c1-c1ccccc1F)c1ccccn1` [I-340]: over 200 µM. With `COc1cc(N[C@@H]2CCCN(c3cccc(F)c3)C2)cc(N2CCOCC2)c1` [I-547], the Kd is over 200 µM. To `Cn1nccc1-c1[nH]ncc1C(=O)N[C@@H](CC(N)=O)c1cccc(Cl)c1` [I-157] belongs 10 to 100 µM; to `NCCOCCOCCOCCC1CCN(c2ccnc(N3CC[C@@H]4[C@H]3CCCN4c3cccc(F)c3)c2)CC1` [I-649], under 10 µM; to `c1ccc2c(N3CCC[C@@H](n4ccc(N5CCOCC5)c5ccnc4-5)C3)nccc2c1` [I-367], over 200 µM. With `NC(=O)C[C@H](NC(=O)c1c[nH]nc1-c1ccccn1)c1cccc(Cl)c1` [I-335], the Kd was 10 to 100 µM.

For `COC[C@@](CC(N)=O)(NC(=O)c1c[nH]nc1-c1ccccc1F)c1cccc(Cl)c1` [I-265], the Kd is over 200 µM. For the molecule `NCCOCCOCCOCCOCCCc1ccc(C(=O)c2[nH]cc(C(=O)N[C@@H](CC(N)=O)c3cccc(Cl)c3)c2-c2c(F)ccc(F)c2F)cc1` [I-791], the Kd is under 10 µM. Next, `NC[C@@H]1CC[C@H](Nc2cc(N3CCCCC3)ccn2)CN1c1cccc(F)c1` [I-1022]: 10 to 100 µM; `COCCOCCOCC[C@H]1CN(c2cc(N3CCCCC3)ccn2)[C@@H]2CCCN(c3cccc(F)c3)[C@H]12` [I-951]: under 10 µM; `Cc1cc2nccn2cc1N1CCC[C@@H](Nc2cc(N3CCOCC3)ccn2)C1` [I-765]: over 200 µM.

Consider `CC1(C)CCCCN1c1ccnc(N[C@@H]2CCCN(c3cccc(F)c3)C2)c1` [I-658], for which the Kd lay in the range of 10 to 100 µM. For the molecule `C[C@@H](O)c1cncc(N2CCC[C@@H](Nc3cc(N4CCOCC4)ccn3)C2)c1` [I-484], the Kd was over 200 µM.

Turning to `COCCC(=O)c1c(-c2c(F)ccc(F)c2C)c(C(=O)N[C@@H](CC(N)=O)c2cccc(Cl)c2)cn1C` [I-973], the Kd was under 10 µM. Consider `OC[C@H]1CC[C@@H](Nc2cc(N3CCCCC3)ccn2)CN1c1cccc(F)c1` [I-1008], for which the Kd fell in the range of 10 to 100 µM.

Turning to `Cc1c(F)ccc(F)c1-c1c(C(=O)N[C@@H](CC(N)=O)c2cccc(Cl)c2)cn(C)c1C(=O)c1ccc(O)cc1` [I-1030], the Kd was under 10 µM. Next, `Fc1cccc(N2[C@H]3CCC[C@@H]2[C@H](Nc2nccc(N4CCOCC4)n2)CC3)c1` (stereo in doubt) [I-322]: over 200 µM; `NC[C@@H]1C[C@H](Nc2cc(N3CCCCC3)ccn2)CN(c2cccc(F)c2)C1` [I-1042]: 10 to 100 µM. For `Fc1cccc(N2CCC[C@H]3[C@@H]2CCN3c2cc(N3CC4CC(C4)C3)ccn2)c1` [I-624], the Kd is over 200 µM. With `Cc1cccc(F)c1-c1[nH]ncc1C(=O)N[C@H](CC(N)=O)c1cc(Cl)cc(Cl)c1` [I-736], the Kd was under 10 µM.
